In patent publication US6680052B1, “Methods of inhibiting tumor growth using adenosine receptor activated cells” (Endacea, Inc., priority 1999, dated 2004):

Assays:
[1] = tested on: pulmonary artery endothelial cells; experiment: Phospholipase A2 increase following hypoxia/anoxia of pulmonary artery endothelial cells in vitro; format: cell-based
Description: Following ischemia and reperfusion, activation of A1 adenosine receptors present on pulmonary arterial endothelial cells results in a cytotoxic effect. In heart tissue adenosine, A1 adenosine receptor agonists, or a brief period (from approximately 5 to about 15 minutes) of preconditioning ischemia attenuates ischemia-reperfusion (I-R) injury. See, […] Keith, Am. J. Physiol. 268:[…] (1995). In the lung, thromboxane is released during ischemia and is a mediator of I-R injury. Adenosine produces vasoconstriction in the pulmonary vascular bed by acting on A1 receptors to induce the release of thromboxane. These vasoconstrictor responses in endothelial cells are desensitized by prior treatment with low doses of A1 receptor agonists. It was hypothesized that during preconditioning ischemia, adenosine attenuates ischemia-reperfusion injury of the heart by activation and subsequent desensitization of A1 adenosine receptors. Preconditioning ischemia attenuates ischemia-reperfusion (I-R) injury of both lung and heart. […]

A1 adenosine receptors = molecular target: T1, A1 adenosine receptors (Homo sapiens, UniProt P30542); experiment: Endotoxin induced inhibition of adenylate cyclase in pulmonary arterial endothelial cells; format: cell-based
T1 construct: endogenous in cells; host or cells: pulmonary arterial endothelial cells
T1 sequence (P30542 1-326): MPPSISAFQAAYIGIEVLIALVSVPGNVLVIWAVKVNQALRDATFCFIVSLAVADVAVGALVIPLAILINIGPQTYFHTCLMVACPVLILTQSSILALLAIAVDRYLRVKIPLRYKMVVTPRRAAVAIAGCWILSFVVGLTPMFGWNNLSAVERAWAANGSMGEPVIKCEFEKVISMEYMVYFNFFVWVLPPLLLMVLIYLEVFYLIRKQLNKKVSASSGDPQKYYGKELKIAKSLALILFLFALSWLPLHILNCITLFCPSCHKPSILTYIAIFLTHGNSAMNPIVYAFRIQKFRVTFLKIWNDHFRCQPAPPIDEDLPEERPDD
From the text: DPCPX and ^125I-BW A844U. […] Neely, Jin and Keith, Am J. Physiol., Lung Cell Mol. Physiol. , 268:L1036, 1995.

[2] = tested on: pulmonary arterial endothelial cells; experiment: Thromboxane release from pulmonary arterial endothelial cells; format: cell-based
From the text: DPCPX and ^125I-BW A844U. These findings indicate that LPS binds to and activates Al adenosine receptors on pulmonary artery endothelial cells. Also, A1 adenosine receptor antagonists are able to block such endotoxin-induced lung injury, supporting that activation of A1 adenosine receptors is important in endotoxin-induced acute lung injury. Neely, Jin and Keith, Am J. Physiol., Lung Cell Mol. Physiol. , 268:L1036, 1995.
The methods of the present invention also utilize hypoxia and reoxygenation conditions to increase A1 adenosine receptor activation and signal transduction pathways which, following activation, result in the release of cytotoxic substances. As noted above, following ischemia and reperfusion, activation of A1 adenosine receptors present on pulmonary arterial endothelial cells causes a cytotoxic effect (Neely and Keith (1995)), and the release of a cytotoxic substance, thromboxane, has been found by the present inventor to be blocked by an A1 adenosine receptor antagonist (DPCPX). In heart tissue adenosine, A1 adenosine receptor agonists, or a brief period of preconditioning ischemia attenuates ischemia-reperfusion (I-R) injury. In the lung, thromboxane is released during ischemia and is a mediator of I-R injury. Moreover, ischemia and reperfusion enhance the capacity of LPS to produce cytotoxicity and damage organs. […]

[3] = tested on: human metastatic cell lines; settings: administered directly to the cell lines, in vitro; cited from earlier work
[4] = tested on: human epidermoid carcinoma cells; settings: low versus higher concentrations; cited from earlier work
monocytes = settings: cited from earlier work

With CCCn1c(=O)c2[nH]c(C3CCCC3)nc2n(CCC)c1=O [DPCPX, 1,3 dipropyl 8 cyclopentylxanthine] the “increase in phospholipase A2 (PLA2)” value [1] was “inhibits”, the “endotoxin induced inhibition of adenylate cyclase” value (A1 adenosine receptors) was “blocked” and the release of thromboxane ([2]; following ischemia and reperfusion, A1 adenosine receptor activation) was “blocked”. For the same compound, the “endotoxin induced thromboxane release” value ([2]; pulmonary arterial endothelial cells) was “blocked”.
For CCNC(=O)[C@H]1O[C@@H](n2cnc3c(N)ncnc32)[C@H](O)[C@@H]1O [NECA, 5′-(N-ethyl)-carboxamidoadenosine], the “effect on cell growth” value [3] is given as “inhibitory effect”.
In the case of CCCn1c(=O)c2[nH]c(-c3ccc(Cl)cc3N)nc2n(CCC)c1=O [PACPX, 1,3-dipropyl-8-(2-amino-4-chloropheny)-xanthine], the “effect on cell growth” value [3] is listed as “inhibitory effect”.
In the case of Nc1ncnc2c1ncn2[C@@H]1O[C@H](CO)[C@@H](O)[C@H]1O [adenosine], the colony formation [4] is given as “biphasic response”.
For [Na+].[Na+].[Na+].[O]=[V]([O-])([O-])[O-] [vanadate, sodium orthovanadate], the “LPS induced production of TNFα” value (monocytes) is listed as “enhanced”.
